Patent US20210317505A1, “IMPROVED DETECTION OF ANTICOAGULANTS IN BODY FLUIDS” (DOASENSE GmbH, priority 2017, published 2021)
Several values for one entry are separate records, joined by “and”; a condition that tells them apart may be missing. Equal entries are not always repeated. Where two headings read alike, the source gives them in different places.

Biological target: factor Xa (Homo sapiens, UniProt P00742)
Details: for difference in reflectance units for the minimum and maximum concentration: 0 ng/mL vs. 1500 ng/mL, native urine; for intensity, mean, Laura Smart No. 1 / intensity, mean, Laura Smart No. 2 / intensity, mean, Laura Smart No. 3 / intensity, mean, all readers / intensity, single, Laura Smart No. 1 / intensity, single, Laura Smart No. 2 / intensity, single, Laura Smart No. 3: 380 nm
From the text: Using a modified reflectance photometer, hereinafter also referred to as reader (Laura Smart (LS), ERBA Lachema), native urine samples were investigated using excitation light having either a wavelength of 380 nm or a wavelength of 470 nm. Herein, the samples under investigation contained the direct factor Xa inhibitor rivaroxaban or the direct thrombin inhibitor dabigatran. For each anticoagulant, samples with different concentrations were provided.
Test strips were used on which both the blood clotting factor (factor Xa or thrombin) and the respective chromogenic substrate conjugated to a detectable substance were immobilized, i.e. N-benzoyl-L-isoleucyl-L-glutamyl-L-glycyl-L-arginine-para-nitroaniline (SEQ ID NO:1) together with factor Xa, and N-(para-tosyl)-glycyl-L-prolyl-L-arginine-para-nitroanilide acetate together with thrombin. After dipping the test strip into the urine sample to be investigated for 2 to 3 seconds, incubation was allowed for 10 min. Then, the test strip was inserted into the reader. In total, three different readers (“Laura No. 1”, “Laura No. 2”, and “Laura No. 3”) were used in order to check for any device-specific issues.
In order to suppress fluorescence light which might originate from the released detestable substance (para-nitroaniline), a UV band-pass filter was used made of UG11 glass (Schott AG).
For each single measurement, an intensity value was put out by the respective reader, given in reflectance units (% REM). Each of the readers was able to split up the measured intensity into 1000 increments.
Generally, the higher the concentration of the anticoagulant in the sample, the less detectable substance is released from the chromogenic substrate by the corresponding blood dotting factor. Accordingly, in case of a high concentration of the anticoagulant, the absorption by the sample is low while the reflectance by the sample is high. In order to reliably evaluate the presence or absence of the anticoagulant in the sample, as a general rule, a low concentration of the anticoagulant in the sample should result in a % REM value as low as possible, while a high concentration of the anticoagulant in the sample should result in a % REM value as high as possible. In other words, the difference in reflectance units for the minimum and maximum concentration of the anticoagulant should be as large as possible.

[1] = rivaroxaban 100 ng/mL in native urine
[2] = rivaroxaban 200 ng/mL in native urine
[3] = rivaroxaban 400 ng/mL in native urine
[4] = rivaroxaban 1500 ng/mL in native urine

factor Xa, sequence (P00742 235-488 limits assumed): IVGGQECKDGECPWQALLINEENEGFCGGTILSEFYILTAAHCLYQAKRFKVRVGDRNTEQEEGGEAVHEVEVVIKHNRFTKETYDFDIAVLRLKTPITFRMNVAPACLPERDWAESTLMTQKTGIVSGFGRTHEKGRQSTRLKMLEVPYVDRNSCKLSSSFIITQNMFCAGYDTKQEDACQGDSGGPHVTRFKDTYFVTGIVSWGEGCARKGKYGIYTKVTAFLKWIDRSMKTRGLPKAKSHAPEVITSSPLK
factor Xa, sequence (P00742 41-179 partner limits assumed): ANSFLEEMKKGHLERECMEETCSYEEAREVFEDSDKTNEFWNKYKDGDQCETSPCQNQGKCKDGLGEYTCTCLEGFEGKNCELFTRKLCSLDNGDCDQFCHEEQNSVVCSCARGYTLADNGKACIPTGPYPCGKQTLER

In the case of `O=C(NC[C@H]1CN(c2ccc(N3CCOCC3=O)cc2)C(=O)O1)c1ccc(Cl)s1` [rivaroxaban], the “difference in reflectance units for the minimum and maximum concentration” value (excitation light 380 nm) is reported as “about 400 % REM”, the “difference in reflectance units for the minimum and maximum concentration” value (excitation light 470 nm) is reported as “about 200 % REM” and the “change of the measured intensity with concentration” value (dark urine samples, excitation light 380 nm) is reported as “possible to observe a change of the measured intensity with the concentration”. For the same compound, the “intensity, mean, Laura Smart No. 1” value [1] was 181 % REM, the “intensity, mean, Laura Smart No. 2” value [1] was 194 % REM and the “intensity, mean, Laura Smart No. 3” value [1] was 199 % REM. For the same compound, the “intensity, mean, all readers” value [1] was 191 % REM, the “intensity, single, Laura Smart No. 1” value [1] was 192 % REM and 159 % REM and 193 % REM and the “intensity, single, Laura Smart No. 2” value [1] was 194 % REM and 191 % REM and 196 % REM. The “intensity, single, Laura Smart No. 3” value [1] was 202 % REM and 196 % REM and 199 % REM, the “intensity, mean, Laura Smart No. 1” value [2] was 276 % REM and the “intensity, mean, Laura Smart No. 2” value [2] was 266 % REM. The “intensity, mean, Laura Smart No. 3” value [2] was 315 % REM, the “intensity, mean, all readers” value [2] was 286 % REM and the “intensity, single, Laura Smart No. 1” value [2] was 254 % REM and 336 % REM and 238 % REM. For the same compound, the “intensity, single, Laura Smart No. 2” value [2] was 279 % REM and 265 % REM and 253 % REM, the “intensity, single, Laura Smart No. 3” value [2] was 304 % REM and 342 % REM and 299 % REM and the “intensity, mean, Laura Smart No. 1” value [3] was 387 % REM. The “intensity, mean, Laura Smart No. 2” value [3] was 425 % REM, the “intensity, mean, Laura Smart No. 3” value [3] was 387 % REM and the “intensity, mean, all readers” value [3] was 400 % REM. The “intensity, single, Laura Smart No. 1” value [3] was 346 % REM and 406 % REM and 409 % REM, the “intensity, single, Laura Smart No. 2” value [3] was 431 % REM and 413 % REM and the “intensity, single, Laura Smart No. 3” value [3] was 423 % REM and 411 % REM and 326 % REM. The “intensity, mean, Laura Smart No. 1” value [4] was 542 % REM, the “intensity, mean, Laura Smart No. 2” value [4] was 518 % REM and the “intensity, mean, Laura Smart No. 3” value [4] was 496 % REM. The “intensity, mean, all readers” value [4] was 519 % REM, the “intensity, single, Laura Smart No. 1” value [4] was 537 % REM and 528 % REM and 560 % REM and the “intensity, single, Laura Smart No. 2” value [4] was 588 % REM and 468 % REM and 499 % REM. The “intensity, single, Laura Smart No. 3” value [4] was 501 % REM and 510 % REM and 476 % REM.
